Results on 36 compounds are retold here after patent publication US9938269B2, “Inhibitor compounds of phosphodiesterase type 10A” (ABBVIE INC., priority 2011, dated 2018).

SMILES strings stand for the structures. Structures can show the parent of a compound that is named as a salt.

For this test, the target named is T1, PDE10A (human) (Homo sapiens, UniProt Q9Y233).
T1 construct: purchased BPS Bioscience
T1 sequence (Q9Y233 whole entry): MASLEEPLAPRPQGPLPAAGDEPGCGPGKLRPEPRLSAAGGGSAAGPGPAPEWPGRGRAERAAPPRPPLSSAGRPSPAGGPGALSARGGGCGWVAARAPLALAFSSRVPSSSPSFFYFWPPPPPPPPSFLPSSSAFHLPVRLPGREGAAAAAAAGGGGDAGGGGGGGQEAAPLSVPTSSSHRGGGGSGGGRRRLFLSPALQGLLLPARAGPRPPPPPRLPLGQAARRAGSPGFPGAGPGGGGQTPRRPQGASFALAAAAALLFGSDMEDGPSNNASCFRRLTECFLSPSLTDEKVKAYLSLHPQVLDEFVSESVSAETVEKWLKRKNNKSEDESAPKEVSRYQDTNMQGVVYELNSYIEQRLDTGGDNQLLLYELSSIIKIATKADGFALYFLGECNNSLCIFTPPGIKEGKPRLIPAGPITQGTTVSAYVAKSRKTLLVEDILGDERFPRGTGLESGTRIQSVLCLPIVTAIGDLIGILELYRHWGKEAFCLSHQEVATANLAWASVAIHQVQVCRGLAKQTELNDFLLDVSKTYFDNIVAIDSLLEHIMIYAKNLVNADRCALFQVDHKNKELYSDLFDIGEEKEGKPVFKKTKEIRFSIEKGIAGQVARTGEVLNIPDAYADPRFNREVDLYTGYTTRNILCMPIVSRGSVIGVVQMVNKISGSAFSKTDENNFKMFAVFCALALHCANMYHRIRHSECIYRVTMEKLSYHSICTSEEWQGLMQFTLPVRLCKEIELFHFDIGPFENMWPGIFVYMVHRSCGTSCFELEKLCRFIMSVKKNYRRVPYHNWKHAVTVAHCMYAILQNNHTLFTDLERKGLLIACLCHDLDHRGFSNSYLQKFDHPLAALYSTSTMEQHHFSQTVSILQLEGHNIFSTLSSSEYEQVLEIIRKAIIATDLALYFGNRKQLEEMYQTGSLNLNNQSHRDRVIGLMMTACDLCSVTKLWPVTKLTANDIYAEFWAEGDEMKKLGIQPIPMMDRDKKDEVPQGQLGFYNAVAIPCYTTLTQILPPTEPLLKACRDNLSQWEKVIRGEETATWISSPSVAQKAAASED
In words: Measurement of PDE activity (HTRF cAMP kit), human PDE10A. The format is biochemical. As to conditions: PDE enzymatic reaction, substrate 20 nM for PDE10, 60 minutes at 29 C. The protocol: The recombinant PDE proteins are used in in vitro enzymatic reaction for measurement of PDE activity. These recombinant proteins, including PDE10A (human, rat and mouse PDE10) and isoforms of PDEs 1, 3, 4, and 5, were purchased from commercial vendor BPS Bioscience. The enzymatic activity of PDEs was determined by cAMP measurement kit from CisBio (IBA) using HTRF technology.
The PDE enzymatic reaction was carried out in assay buffer (20 mM Tris-HCl pH7.5, 10 mM MgCl2, 0.1% bovine serum albumin) containing enzyme and substrate. The PDE enzymes concentration ranged from 10 pM-250 pM, depending on each enzyme's specific activity. The substrate cyclic nucleotide (cAMP or cGMP) concentration used in the assay was 20 nM for PDE10, and 100 nM for other PDEs. The inhibitory effect of compound was determined by incubating various concentration of inhibitor in the enzymatic assay. Typically, compound was serial diluted in DMSO then further diluted in assay buffer. Next, the compound at varying concentration was mixed with PDE enzyme. The reaction was initiated by addition of cyclic nucleotide substrate, and incubated for 60 minutes at 29 C. The reaction was stopped by addition of lysis buffer from assay kit. The cAMP-d2 and anti-cAMP cryptate in the lysis buffer detected the level of cAMP left from the PDE hydrolysis reaction. The PDE activity is reversely correlated with the amount of cAMP left in the reaction and can be converted to the percent activity of an uninhibited control (100%). Thus, IC50 value of inhibitor can be obtained by plotting inhibitor concentration against PDE activity at that concentration.
`O=C1c2cccc(-c3ccnc(C4CC4)c3)c2CN1CCc1ccc2ccccc2n1` [Example 354, 4-(2-Cyclopropyl-pyridin-4-yl)-2-(2-quinolin-2-yl-ethyl)-2,3-dihydro-isoindol-1-one] gave an IC50 of 200 to 500 nM.

`Cn1nccc1-c1ccc(F)c2c1C(=O)N(CCc1ccc3ccccc3n1)C2` [compound 439, 4-Fluoro-7-(2-methylpyrazol-3-yl)-2-[2-(2-quinolyl)ethyl]isoindolin-1-one] showed an IC50 of less than 100 nM.

`O=C1c2c(cccc2-c2cn[nH]c2)CN1CCc1ccc2ccccc2n1` [Example 78, 7-(1H-Pyrazol-4-yl)-2-(2-quinolin-2-yl-ethyl)-2,3-dihydro-isoindol-1-one] showed a 50% inhibitory concentration (IC50) of less than 100 nM.

Take `O=C1c2c(-c3ccncc3)ccnc2CN1CCc1cc(-c2ccncc2)c2ccccc2n1` [compound 484, 4-(4-Pyridyl)-6-[2-[4-(4-pyridyl)-2-quinolyl]ethyl]-7H-pyrrolo[3,4-b]pyridin-5-one]: the IC50 was less than 100 nM.

`CCn1c(CCN2Cc3cccc(-c4ccncc4)c3C2=O)nc2ccccc21` [Example 222, 2-[2-(1-Ethyl-1H-benzoimidazol-2-yl)-ethyl]-7-pyridin-4-yl-2,3-dihydro-isoindol-1-one trifluoroacetate]: the IC50 was less than 100 nM.

Turning to `COc1ccc(-c2cccc3c2CN(CCc2ccc4ccccc4n2)C3=O)cc1` [Example 203, 4-(4-Methoxy-phenyl)-2-(2-quinolin-2-yl-ethyl)-2,3-dihydro-isoindol-1-one trifluoroacetate], the half-maximal inhibitory concentration (IC50) was less than 100 nM.

`O=C1c2c(cccc2-c2ccc3occc3c2)CN1CCc1ccc2ccccc2n1` [Example 72, 7-Benzofuran-5-yl-2-(2-quinolin-2-yl-ethyl)-2,3-dihydro-isoindol-1-one] returned an IC50 of 200 to 500 nM.

Regarding `N#Cc1ccc(-c2cccc3c2C(=O)N(CCc2ccc4ccccc4n2)C3)s1` [Example 281, 5-[3-oxo-2-(2-quinolin-2-yl-ethyl)-2,3-dihydro-1H-isoindol-4-yl]-thiophene-2-carbonitrile], the IC50 is less than 100 nM.

As for `COc1ccc(-c2ccc(F)cc2)c2c1CN(CCc1ccc3ccccc3n1)C2=O` [Example 187, 7-(4-Fluoro-phenyl)-4-methoxy-2-(2-quinolin-2-yl-ethyl)-2,3-dihydro-isoindol-1-one], the concentration for half-maximal inhibition (IC50) is less than 100 nM.

Turning to `Cc1cc(-c2cccc3c2CN(CCc2ccc4ccccc4n2)C3=O)n(C)n1` [Example 348, 4-(2,5-Dimethyl-2H-pyrazol-3-yl)-2-(2-quinolin-2-yl-ethyl)-2,3-dihydro-isoindol-1-one], the half-maximal inhibitory concentration (IC50) is 100 to 200 nM.

In turn, `O=C1c2c(N3CCC(C(F)F)C3)ccnc2CN1CCc1ccc2ccccc2n1` (stereo not drawn) [compound 434] showed a half-inhibitory concentration (IC50) of less than 100 nM.

As to `CN1CCC(N2CCN(c3cccc4c3C(=O)N(CCc3ccc5ccccc5n3)C4)CC2)CC1` [Example 105, 7-[4-(1-Methyl-piperidin-4-yl)-piperazin-1-yl]-2-(2-quinolin-2-yl-ethyl)-2,3-dihydro-isoindol-1-one], the half-maximal inhibitory concentration (IC50) is 200 to 500 nM.

Compound `O=C1c2c(-c3cncnc3)ccc(F)c2CN1CCc1ccc2ccccc2n1` [compound 443, 4-Fluoro-7-pyrimidin-5-yl-2-[2-(2-quinolyl)ethyl]isoindolin-1-one trifluoroacetate] returned an IC50 of less than 100 nM.

Consider `O=C1c2cccc(-c3cncnc3)c2CN1CCc1ccc2ccccc2n1` [Example 208, 4-Pyrimidin-5-yl-2-(2-quinolin-2-yl-ethyl)-2,3-dihydro-isoindol-1-one], for which the IC50 is less than 100 nM.

Turning to `O=C1c2c(cccc2-c2ccncc2Cl)CN1CCc1ccc2ccccc2n1` [Example 170, 7-(3-Chloro-pyridin-4-yl)-2-(2-quinolin-2-yl-ethyl)-2,3-dihydro-isoindol-1-one trifluoroacetate], the half-maximal inhibitory concentration (IC50) is less than 100 nM.

In the case of `Cc1cscc1-c1cccc2c1C(=O)N(CCc1ccc3ccccc3n1)C2` [Example 73, 7-(4-Methyl-thiophen-3-yl)-2-(2-quinolin-2-yl-ethyl)-2,3-dihydro-isoindol-1-one], the IC50 was in the range of 200 to 500 nM.

Turning to `O=C1c2c(cccc2-c2ccccc2)CN1CCc1ccc2ccccc2n1` [Example 21, 7-Phenyl-2-(2-quinolin-2-yl-ethyl)-2,3-dihydro-isoindol-1-one], the IC50 is 100 to 200 nM.

Regarding `Cn1cncc1-c1cccc2c1C(=O)N(CCc1ccc3ccccc3n1)C2` [Example 94, 7-(3-Methyl-3H-imidazol-4-yl)-2-(2-quinolin-2-yl-ethyl)-2,3-dihydro-isoindol-1-one], the IC50 lay within 200 to 500 nM.

Compound `O=C1c2cccc(-c3cccnc3)c2CN1CCc1ccc2ccccc2n1` [Example 201, 4-Pyridin-3-yl-2-(2-quinolin-2-yl-ethyl)-2,3-dihydro-isoindol-1-one] registered a half-maximal inhibitory concentration (IC50) of less than 100 nM.

With `O=C1c2c(cccc2-c2cncc(F)c2)CN1CCc1ccc2ccccc2n1` [Example 77, 7-(5-Fluoro-pyridin-3-yl)-2-(2-quinolin-2-yl-ethyl)-2,3-dihydro-isoindol-1-one], the IC50 was less than 100 nM.

`Cc1ccsc1-c1ccnc2c1C(=O)N(CCc1ccc3ccccc3n1)C2` [Example 336, 4-(3-Methyl-thiophen-2-yl)-6-(2-quinolin-2-yl-ethyl)-6,7-dihydro-pyrrolo[3,4-b]pyridin-5-one] gave a concentration for half-maximal inhibition (IC50) of 100 to 200 nM.

Compound `O=C1c2c(cccc2-c2ccco2)CN1CCc1ccc2ccccc2n1` [Example 31, 7-Furan-2-yl-2-(2-quinolin-2-yl-ethyl)-2,3-dihydro-isoindol-1-one] gave an IC50 of 200 to 500 nM.

`O=C1c2c(cccc2-c2ccccc2F)CN1CCc1ccc2ccccc2n1` [Example 29, 7-(2-Fluoro-phenyl)-2-(2-quinolin-2-yl-ethyl)-2,3-dihydro-isoindol-1-one] registered a half-maximal inhibitory concentration (IC50) of 100 to 200 nM.

For `COc1ccc(-c2ccc(F)c3c2C(=O)N(CCc2ccc4ccccc4n2)C3)cc1` [compound 441, 4-Fluoro-7-(4-methoxyphenyl)-2-[2-(2-quinolyl)ethyl]isoindolin-1-one], the IC50 is 100 to 200 nM.

As to `O=C1c2c(-c3ccncc3)ccnc2CN1CCc1nc(C2CC2)cs1` [compound 517, 6-[2-(4-Cyclopropylthiazol-2-yl)ethyl]-4-(4-pyridyl)-7H-pyrrolo[3,4-b]pyridin-5-one], the half-maximal inhibitory concentration (IC50) was less than 100 nM.

Compound `O=C1c2c(cccc2-c2ccncc2)CN1CCc1nc2ccccc2n1CCN1CCOCC1` [Example 292, 2-{2-[1-(2-Morpholin-4-yl-ethyl)-1H-benzoimidazol-2-yl]-ethyl}-7-pyridin-4-yl-2,3-dihydro-isoindol-1-one trifluoroacetate] showed an IC50 of less than 100 nM.

On to `O=C1c2c(C3=COCC3)ccnc2CN1CCc1ccc2ccccc2n1` [Example 266, 4-(4,5-Dihydro-furan-3-yl)-6-(2-quinolin-2-yl-ethyl)-6,7-dihydro-pyrrolo[3,4-b]pyridin-5-one], for which the IC50 was less than 100 nM.

Consider `COc1cnccc1-c1cccc2c1CN(CCc1ccc3ccccc3n1)C2=O` [compound 388, 4-(3-Methoxy-4-pyridyl)-2-[2-(2-quinolyl)ethyl]isoindolin-1-one], for which the IC50 fell in the range of 100 to 200 nM.

`COc1ccc(-c2cccc3c2C(=O)N(CCc2ccc4ccccc4n2)C3)cc1` [Example 23, 7-(4-Methoxy-phenyl)-2-(2-quinolin-2-yl-ethyl)-2,3-dihydro-isoindol-1-one]: the half-maximal inhibitory concentration (IC50) is less than 100 nM.

Take `O=C1c2c(-c3ccc(F)cc3)ccc(F)c2CN1CCc1ccc2ccccc2n1` [compound 444, 4-Fluoro-7-(4-fluorophenyl)-2-[2-(2-quinolyl)ethyl]isoindolin-1-one]: the IC50 was less than 100 nM.

Regarding `O=C1c2c(cccc2N2CCCC3NCCCC32)CN1CCc1ccc2ccccc2n1` (stereo not drawn) [Example 279, 7-(Octahydro-[1,5]naphthyridin-1-yl)-2-(2-quinolin-2-yl-ethyl)-2,3-dihydro-isoindol-1-one trifluoroacetate], the IC50 was 200 to 500 nM.

`O=C1c2cccc(-c3ccsc3)c2CN1CCc1ccc2ccccc2n1` [Example 345, 2-(2-Quinolin-2-yl-ethyl)-4-thiophen-3-yl-2,3-dihydro-isoindol-1-one] returned an IC50 of less than 100 nM.

`O=C1c2c(-c3ccncc3)ccc(OCCF)c2CN1CCc1ccc2ccccc2n1` [compound 533, 4-(2-Fluoro-ethoxy)-7-pyridin-4-yl-2-(2-quinolin-2-yl-ethyl)-2,3-dihydro-isoindol-1-one] yielded a 50% inhibitory concentration (IC50) of less than 100 nM.

As for `O=C1c2cccc(-c3cccnc3)c2C(=O)N1CCc1ccc2ccccc2n1` [Example 271, 4-Pyridin-3-yl-2-(2-quinolin-2-yl-ethyl)-isoindole-1,3-dione], the 50% inhibitory concentration (IC50) was less than 100 nM.

In turn, `CN(C)c1cccc(-c2cccc3c2C(=O)N(CCc2ccc4ccccc4n2)C3)c1` [Example 43, 7-(3-Dimethylamino-phenyl)-2-(2-quinolin-2-yl-ethyl)-2,3-dihydro-isoindol-1-one] showed an IC50 of 200 to 500 nM.

The compound `CCOC(=O)C1CCN(c2ccnc3c2C(=O)N(CCc2ccc4ccccc4n2)C3)CC1` [Example 319, 1-[5-Oxo-6-(2-quinolin-2-yl-ethyl)-6,7-dihydro-5H-pyrrolo[3,4-b]pyridin-4-yl]-piperidine-4-carboxylic acid ethyl ester] yielded a half-maximal inhibitory concentration (IC50) of 200 to 500 nM.
